Measured values as given in US20230263786A1, “MODULATION OF DRUG-DRUG INTERACTIONS OF VADADUSTAT” (Akebia Therapeutics, Inc., priority 2020, published 2023).
Where “and” joins values, the source holds several entries; their conditions need not be identical. Equal values may be shown once. Read-outs that look alike come from different tables or passages of the source.

Key:
[1] = Phase I calcium acetate interaction study; assay type: in vivo, human; details: for AUC(0-t) / Cmax / Tmax / AUC(0-inf) / clearance / half-life / Vd: human, plasma, oral; for Tmax: median; for clearance: read-out: Clearance (ClB) (converted); for half-life: read-out: Elimination half-life (t1/2) (converted); for Vd: read-out: Volume of distribution (Vc)
Procedure: A phase I, open-label, fixed-sequence study was conducted in healthy adult subjects to assess the effect of 1) a single oral dose of calcium acetate on the pharmacokinetics of a single oral dose of vadadustat.
The study included screening (28 days maximum), 9-day treatment period, and a 14-day follow-up period post last dose.
Pharmacokinetics. A predose PK blood sample was collected on Day 1. After each dose of vadadustat administered (Days 1, 3, 5, and 7), blood samples for PK analysis were collected at the following time points: predose and 0.5, 1, 1.5, 2, 3, 4, 6, 9, 12, 16, 24, and 48 hours after each dose of vadadustat. The 48-hour postdose sample was collected before vadadustat administration on Days 3, 5, and 7. The following parameters were calculated and analyzed: AUC0-∞, AUC0-last, Cmax, Tmax, Kel, CIB, Vc/F, and t1/2.
Subjects were dosed approximately at the same designated time on each dosing day, where applicable. Study drugs were administered with approximately 8 ounces (240 mL) of water at room temperature in a seated position. Subjects were instructed to drink the full 8 ounces of water, and not to chew or break the tablets/gelcaps.
The 9-day treatment period was conducted as follows: • Day 1: vadadustat administered immediately after consuming breakfast. • Day 2: wash-out (no investigational product administration). • Day 3: vadadustat administered concomitantly with the requisite phosphate binder immediately after consuming breakfast. • Day 4: wash-out (no investigational product administration). • Day 5: vadadustat administered in fasted condition and the phosphate binder administered 1 hour later (breakfast must be served within 2 minutes after phosphate binder administration and consumed immediately after it is served). • Day 6: wash-out (no investigational product administration). • Day 7: phosphate binder administered immediately after consuming breakfast; vadadustat administered 2 hours after the phosphate binder was administered. • Day 8: wash-out (no investigational product administration). • Day 9: subjects discharged from the Clinical Research Unit (CRU) after the 48-hour postdose PK blood sample has been collected.
A single oral dose of vadadustat 300 mg (2×150 mg tablets) was administered on Days 1, 3, 5, and 7. Phosphate binder that is calcium acetate (1334 mg, 2×667 mg gelcaps) was administered on Days 3, 5, and 7.

[2] = Phase I single-dose study, moderate hepatic impairment versus normal hepatic function; assay type: in vivo, human; details: for AUC(0-inf) / AUC(0-t) / Cmax / Vd/F / half-life / Tmax / CL renal: both sexes, human, oral, 450 mg; for AUC(0-inf) / AUC(0-t) / Cmax / Vd/F / half-life / Tmax: plasma; for half-life: read-out: Elimination Half-life (t1/2) (converted); for Tmax: median; for CL renal: urine, read-out: CLr, renal clearance (converted)
Procedure: A phase I, open-label, parallel-group, single-dose study was conducted to evaluate the pharmacokinetics (PK) of 450 mg vadadustat administered in adults with moderate hepatic impairment (Child-Pugh Class B) versus those with normal hepatic function. The pharmacokinetic (pK) parameters of Compound 1 were characterized. Safety and tolerability were assessed throughout the study.
Inclusion criteria: participants were male and female adults between 18 and 70 years of age, with either normal hepatic function or moderate hepatic impairment based on the Child-Pugh classification (Child-Pugh Class B [score 7-9]). Moderate hepatic impairment was defined by the presence and severity of elevated bilirubin levels, decreased serum albumin levels, elevated international normalized ratios >2.20, ascites, and hepatic encephalopathy.
Pharmacokinetics. […] PK parameters Ae0-72, Fe %0-72, and CL, were estimated from the urine concentration-time profiles.
8 subjects with hepatic impairment and 8 matched subjects with normal hepatic function were enrolled in the study. All subjects received a single oral 450-mg dose of vadadustat on Day 1 and were required to fast for at least 10 hours before dosing and for 4 hours after dosing.

[3] = concomitant administration of phosphate binder, ANOVA
[4] = 300 mg, Concomitant administration with calcium acetate 1334 mg after breakfast
[5] = 300 mg, Vadadustat 300 mg alone, immediately after breakfast
[6] = 300 mg, Vadadustat administered 1 hour prior to calcium acetate, fasting
[7] = 300 mg, Vadadustat administered 2 hours after calcium acetate
[8] = single 450 mg, Moderate Hepatic Impairment, mean ± SD
[9] = single 450 mg, Moderate Hepatic Impairment
[10] = single 450 mg, Normal Liver Function, mean ± SD
[11] = single 450 mg, Normal Liver Function

O=C(O)CNC(=O)c1ncc(-c2cccc(Cl)c2)cc1O [Compound 1, {[5-(3-chlorophenyl)-3-hydroxypyridine-2-carbonyl]amino}acetic acid]
reduction of AUC0-last and AUC0-∞ [1, 3]: about 55% | reduction of Cmax [1, 3]: about 51% | AUC(0-t) [1, 4]: 77.4 ± 31.7 µg·h/mL | Cmax [1, 4]: 11300 ± 4390 ng/mL | Tmax [1, 4]: 4 h | AUC(0-inf) ([1]; 300 mg, Concomitant administration with calcium acetate 1334 mg after breakfast, read-out: AUC0-∞): 79.6 ± 32.7 µg·h/mL | clearance [1, 4]: 77.3 mL/min | half-life [1, 4]: 4.58 ± 0.9 h | Vd [1, 4]: 29.8 ± 14.6 L | AUC(0-t) [1, 5]: 163 ± 45.7 µg·h/mL | Cmax [1, 5]: 21900 ± 5610 ng/mL | Tmax [1, 5]: 3.93 h | AUC(0-inf) ([1]; 300 mg, Vadadustat 300 mg alone, immediately after breakfast, read-out: AUC0-∞): 166 ± 45.4 µg·h/mL | clearance [1, 5]: 31.8 mL/min | half-life [1, 5]: 4.75 ± 1.2 h | Vd [1, 5]: 12.6 ± 2.41 L | AUC(0-t) [1, 6]: 130 ± 36.2 µg·h/mL | Cmax [1, 6]: 25000 ± 9560 ng/mL | Tmax [1, 6]: 1.44 h | AUC(0-inf) ([1]; 300 mg, Vadadustat administered 1 hour prior to calcium acetate, fasting, read-out: AUC0-∞): 133 ± 36.8 µg·h/mL | clearance [1, 6]: 40.3 mL/min | half-life [1, 6]: 4.47 ± 0.75 h | Vd [1, 6]: 15.3 ± 3.25 L | AUC(0-t) [1, 7]: 132 ± 44.3 µg·h/mL | Cmax [1, 7]: 24600 ± 7130 ng/mL | Tmax [1, 7]: 2.97 h | AUC(0-inf) ([1]; 300 mg, Vadadustat administered 2 hours after calcium acetate, read-out: AUC0-∞): 135 ± 44.3 µg·h/mL | clearance [1, 7]: 42.2 mL/min | half-life [1, 7]: 4.84 ± 1.03 h | Vd [1, 7]: 17.8 ± 9.99 L | AUC(0-inf) ([1]; vadadustat administered concurrently with calcium acetate, read-out: geometric LS mean AUC0-∞): 72.4 µg·h/mL | changes in vadadustat exposure ([1]; vadadustat administered 1 hour prior to calcium acetate): within the prespecified no-effect boundaries of 80% to 125% | changes in vadadustat exposure ([1]; vadadustat administered 2 hours after calcium acetate): within the prespecified no-effect boundaries of 80% to 125% | AUC(0-inf) ([2]; AUC0-inf, Geometric LSM, Total Compound 1, single 450 mg, Moderate Hepatic Impairment): 414 µg·h/mL | AUC(0-inf) ([2]; AUC0-inf, Geometric LSM, Total Compound 1, single 450 mg, Normal Liver Function): 394 µg·h/mL | AUC(0-t) ([2]; AUC0-last, Geometric LSM, Total Compound 1, single 450 mg, Moderate Hepatic Impairment): 410 µg·h/mL | AUC(0-t) ([2]; AUC0-last, Geometric LSM, Total Compound 1, single 450 mg, Normal Liver Function): 389 µg·h/mL | Cmax ([2]; Cmax, Geometric LSM, Total Compound 1, single 450 mg, Moderate Hepatic Impairment): 52000 ng/mL | Cmax ([2]; Cmax, Geometric LSM, Total Compound 1, single 450 mg, Normal Liver Function): 50000 ng/mL | Vd/F ([2]; Volume of distribution (Vd/F), Unbound Compound 1, single 450 mg, Moderate Hepatic Impairment, mean ± SD): 1490 ± 542 L | Vd/F ([2]; Volume of distribution (Vd/F), Unbound Compound 1, single 450 mg, Normal Liver Function, mean ± SD): 1330 ± 222 L | AUC(0-inf) ([2]; single 450 mg, Moderate Hepatic Impairment, mean ± SD, read-out: AUC0-inf, plasma, total): 436 ± 156 µg·h/mL | AUC(0-t) ([2]; single 450 mg, Moderate Hepatic Impairment, mean ± SD, read-out: AUC0-last, plasma, total): 432 ± 153 µg·h/mL | Cmax ([2]; single 450 mg, Moderate Hepatic Impairment, mean ± SD, read-out: Cmax, plasma, total): 53000 ± 12000 ng/mL | half-life [2, 8]: 7.8 h | Vd/F ([2]; single 450 mg, Moderate Hepatic Impairment, mean ± SD, read-out: Volume of distribution (Vd/F), total): 12.3 ± 4 L | Tmax [2, 9]: 2 h | AUC(0-inf) ([2]; single 450 mg, Normal Liver Function, mean ± SD, read-out: AUC0-inf, plasma, total): 397 ± 72 µg·h/mL | AUC(0-t) ([2]; single 450 mg, Normal Liver Function, mean ± SD, read-out: AUC0-last, plasma, total): 395 ± 72 µg·h/mL | Cmax ([2]; single 450 mg, Normal Liver Function, mean ± SD, read-out: Cmax, plasma, total): 53000 ± 15000 ng/mL | half-life [2, 10]: 5.8 h | Vd/F ([2]; single 450 mg, Normal Liver Function, mean ± SD, read-out: Volume of distribution (Vd/F), total): 9.6 ± 1.9 L | Tmax [2, 11]: 2.5 h | CL renal [2, 9]: 0.105 mL/min | CL renal [2, 11]: 0.122 mL/min | impact of moderate hepatic impairment on total systemic exposure ([2]; single 450 mg): no significant impact on total systemic exposure | AUC0-inf, Geometric LSM, Unbound Compound 1 [2, 9]: 3.47 µg·h/mL | AUC0-last, Geometric LSM, Unbound Compound 1 [2, 9]: 3.44 µg·h/mL | Ae0-72, cumulative amount excreted in urine up to 72 hours [2, 9]: 2.45 ± 1.611 mg | Cmax, Geometric LSM, Unbound Compound 1 [2, 9]: 433 ng/mL | Fe%0-72, cumulative fraction excreted in urine [2, 9]: 0.545% and 0.545 ± 0.3580% | AUC0-inf, Unbound Compound 1 [2, 8]: 3.78 ± 1.738 µg·h/mL | AUC0-last, Unbound Compound 1 [2, 8]: 3.75 ± 1.709 µg·h/mL | Clearance (CL/F), Unbound Compound 1 [2, 8]: 140 ± 56.02 L/h | Clearance (CL/F), total [2, 8]: 1.2 ± 0.4 L/h | Cmax, Unbound Compound 1 [2, 8]: 451 ± 133.2 ng/mL | Elimination Half-life (t1/2) [2, 8]: 7.75 ± 2.5 h | AUC0-inf, Geometric LSM, Unbound Compound 1 [2, 11]: 2.79 µg·h/mL | AUC0-last, Geometric LSM, Unbound Compound 1 [2, 11]: 2.78 µg·h/mL | Ae0-72, cumulative amount excreted in urine up to 72 hours [2, 11]: 2.76 ± 1.214 mg | Cmax, Geometric LSM, Unbound Compound 1 [2, 11]: 360 ng/mL | Fe%0-72, cumulative fraction excreted in urine [2, 11]: 0.614% and 0.614 ± 0.2698% | AUC0-inf, Unbound Compound 1 [2, 10]: 2.91 ± 0.9049 µg·h/mL | AUC0-last, Unbound Compound 1 [2, 10]: 2.90 ± 0.9001 µg·h/mL | Clearance (CL/F), Unbound Compound 1 [2, 10]: 167 ± 49.10 L/h | Clearance (CL/F), total [2, 10]: 1.2 ± 0.3 L/h | Cmax, Unbound Compound 1 [2, 10]: 378 ± 113.1 ng/mL | Elimination Half-life (t1/2) [2, 10]: 5.81 ± 1.4 h | serious AEs ([2]; single 450 mg, both groups): No serious AEs | dose excreted in the urine as Compound 1 ([2]; single 450 mg, both moderate hepatic impairment and normal hepatic function): < 1%
